These results are taken from US8153160B2 (Bayer Pharma Aktiengesellschaft, priority 2005, dated 2012).

The structures appear in SMILES notation.

The conditions of data set [1]: cited from earlier work.
Data set [2] can be described thus: In vitro release, USP release method with apparatus 2 (paddle). The following applies: 100 rpm, 900 ml phosphate buffer pH 6.8 + 1.0% sodium lauryl sulfate, JP sinker. The format is physicochemical. On the procedure: The in vitro release investigations described below were carried out by the USP release method with apparatus 2 (paddle). […] Also added to the buffer solution to set up sink conditions is 1% sodium lauryl sulfate. The tablet formulations are preferably released from a sinker as specified in the Japanese Pharmacopoeia.

`CCCCc1nc(Cl)c(CO)n1Cc1ccc(-c2ccccc2-c2nn[nH]n2)cc1` [Losartan-K, losartan potassium]: the “water solubility, classified in words” value in data set [1] is listed as “freely soluble”. For the same compound, the “Release [%] at 2 h” value in data set [2] (from tablet Exemplary formulation 2.1 (30 mg nifedipine, osmotic two-chamber system), time 2 h) is on record as 2%. Also, in data set [2] (from tablet Exemplary formulation 2.1 (30 mg nifedipine, osmotic two-chamber system), time 4 h), the “Release [%] at 4 h” value came to 19%. For the same compound, the “Release [%] at 8 h” value in data set [2] (from tablet Exemplary formulation 2.1 (30 mg nifedipine, osmotic two-chamber system), time 8 h) was found to be 48%. In addition, in data set [2] (from tablet Exemplary formulation 2.1 (30 mg nifedipine, osmotic two-chamber system), time 12 h), the “Release [%] at 12 h” value is on record as 77%. In addition, the “Release [%] at 24 h” value in data set [2] (from tablet Exemplary formulation 2.1 (30 mg nifedipine, osmotic two-chamber system), time 24 h) stood at 96%.

Regarding `CCCc1nc2c(C)cc(-c3nc4ccccc4n3C)cc2n1Cc1ccc(-c2ccccc2C(=O)O)cc1` [Telmisartan], in data set [2] (from nifedipine/telmisartan osmotic two-chamber tablet, heading prints Exemplary Formulation 2.1, time 2 h), the “Release [%] at 2 h” value was 5%. Moreover, in data set [2] (from nifedipine/telmisartan osmotic two-chamber tablet, heading prints Exemplary Formulation 2.1, time 5 h), the “Release [%] at 5 h” value amounted to 22%. Further, the “Release [%] at 10 h” value in data set [2] (from nifedipine/telmisartan osmotic two-chamber tablet, heading prints Exemplary Formulation 2.1, time 10 h) is on record as 51%. Further, the “Release [%] at 15 h” value in data set [2] (from nifedipine/telmisartan osmotic two-chamber tablet, heading prints Exemplary Formulation 2.1, time 15 h) was 80%. Moreover, the “Release [%] at 24 h” value in data set [2] (from nifedipine/telmisartan osmotic two-chamber tablet, heading prints Exemplary Formulation 2.1, time 24 h) was 90%.

Turning to `CCOc1nc2cccc(C(=O)OC(C)OC(=O)OC3CCCCC3)c2n1Cc1ccc(-c2ccccc2-c2nnn[nH]2)cc1` (stereo not shown) [candesartan cilexetil], the “water solubility, classified in words” value in data set [1] was “virtually insoluble in water”.

On to `COC(=O)C1=C(C)NC(C)=C(C(=O)OCC(C)C)C1c1ccccc1[N+](=O)[O-]` (stereo not shown) [nisoldipine], for which, in data set [1], the water solubility result is on record as “about 2 mg/l”.
